Assays:
[1] = target: Human cGAS amino acids 155-522 (Homo sapiens (Human), UniProt Q8N884); assay: cGAS biochemical activity assay (ATP remaining, Kinase-Glo Max luminescence); conditions: human cGAS 155-522, ATP remaining (Kinase-Glo Max); read-out: cGAS IC50
[2] = system: cGAS/STING pathway in THP1 cells; assay: THP1 cell-based cGAS/STING pathway activity assay (IRF-3-linked luciferase reporter); conditions: Homo sapiens, THP-1
Method in brief: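 THP1 cells carrying an IRF-3-driven luciferase reporter were read across a range of compound concentrations, and IC50 values were derived from these concentration responses; the assay upper limit was 100 μM.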

[3] = system: RANTES/CCL5 secretion by Trex1-KO BMM; assay: Inhibition of RANTES/CCL5 secretion by Trex1-KO bone marrow-derived macrophages; format: cell-based, mice; design: key to BMM IC50 R (RANTES): A: an IC50 value less than 5 μM; B: an IC50 value between 5 and 20 μM; where an IC50 value could not be calculated from the data; conditions: RANTES secretion; for IC50: Mus musculus, Macrophage, read-out: BMM IC50 R (RANTES)
Description: (§1) A cellular assay can be used to asses the compounds of the invention for their ability to inhibit cytokine production. Bone marrow macrophages harvested from mice can be used to determine response as a function of compound concentration.
(§2) The inhibition of secreted cytokine was measured in bone marrow-derived macrophages (BMMs) from diseased mice to evaluate the potency of compounds of the invention as described herein. […] To derive bone marrow macrophages, marrow extracted from the femurs and tibias were harvested from Trex1-KO mice was cultured in growth media supplemented with macrophage colony-stimulating factor (M-CSF). Differentiated BMM were harvested and frozen for subsequent experimentation. For treatment with compound C1089 (see Example 13), a frozen stock of Trex1-KO BMM was thawed and 1×10^5 cells were plated in 96 well format. BMMs were treated with a dilution series of C1089 and incubated overnight at 37° C. 5% CO2, at which point cellular supernatants were harvested and stored at −80° C. for subsequent analysis. The media used for this dilution series was without FBS. Remaining cells were evaluated for viability using Cell Titer Glo 2.0 kit according to the manufacturer instructions. BMM supernatants were evaluated for the secreted cytokine […] (RANTES/CCL5) or for secreted cytokine monocyte chemoattractant protein 1 (MCP-1/CCL2) using cytometric bead array mouse Flex Set kits (BD Biosciences). Cytokine concentration was calculated from a standard curve and normalized to vehicle (DMSO) treated cells.

[4] = system: MCP-1/CCL2 secretion by Trex1-KO BMM; assay: Inhibition of MCP-1/CCL2 secretion by Trex1-KO bone marrow-derived macrophages; format: cell-based, mice; design: key to BMM IC50 M (MCP-1): A: an IC50 value less than 5 μM; B: an IC50 value between 5 and 20 μM; where an IC50 value could not be calculated from the data; conditions: MCP-1 secretion
Description: as §1, §2

Chain of Human cGAS amino acids 155-522 (Q8N884 157-522): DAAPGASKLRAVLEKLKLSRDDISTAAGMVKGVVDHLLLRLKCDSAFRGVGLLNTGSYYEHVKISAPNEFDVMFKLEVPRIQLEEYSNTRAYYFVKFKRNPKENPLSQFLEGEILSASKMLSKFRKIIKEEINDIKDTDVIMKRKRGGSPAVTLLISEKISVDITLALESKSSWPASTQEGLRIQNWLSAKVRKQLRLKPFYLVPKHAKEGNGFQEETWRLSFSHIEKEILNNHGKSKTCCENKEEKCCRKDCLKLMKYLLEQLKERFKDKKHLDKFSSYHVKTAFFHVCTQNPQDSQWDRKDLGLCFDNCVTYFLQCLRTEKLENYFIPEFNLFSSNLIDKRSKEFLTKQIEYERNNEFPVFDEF

Compound | IC50 [1] | IC50 [2] | IC50 [3] | BMM IC50 M (MCP-1) [4] | BMM IC50 R (RANTES) [3] | IC50 ([4]; Mus musculus, Macrophage, read-out: BMM IC50 M (MCP-1))
COc1cccc2oc(-c3c(C(F)(F)F)[nH]c4c(-c5ccccc5)c(C#N)nn4c3=O)nc12 [Compound C1118, 6-(4-methoxybenzo[d]oxazol-2-yl)-7-oxo-3-phenyl-5-(trifluoromethyl)-4,7-dihydropyrazolo[1,5-a]pyrimidine-2-carbonitrile] | < 20 µM | < 20 µM | < 5 µM | C |  | 
Cc1[nH]c2c(-c3ccccc3)c(C(F)(F)F)nn2c(=O)c1C(=O)Nc1cccc(OC2CCCC2)c1 [Compound A1082, N-(3-(cyclopentyloxy)phenyl)-5-methyl-7-oxo-3-phenyl-2-(trifluoromethyl)-4,7-dihydropyrazolo[1,5-a]pyrimidine-6-carboxamide] | < 20 µM | < 20 µM |  | C | C | 
COc1c(C#N)ccc2oc(-c3c(C)[nH]c4c(-c5ccccc5)c(C(F)(F)F)nn4c3=O)nc12 [Compound C1126, 4-methoxy-2-(5-methyl-7-oxo-3-phenyl-2-(trifluoromethyl)-4,7-dihydropyrazolo[1,5-a]pyrimidin-6-yl)benzo[d]oxazole-5-carbonitrile] | < 20 µM | 20 to 100 µM |  | C | C | 
COc1cccc2oc(-c3c(C)[nH]c4c(-c5ccccc5F)c(C(F)(F)F)nn4c3=O)nc12 [Compound C1091, 3-(2-fluorophenyl)-6-(4-methoxybenzo[d]oxazol-2-yl)-5-methyl-2-(trifluoromethyl)pyrazolo[1,5-a]pyrimidin-7(4H)-one] | < 20 µM | < 20 µM |  | C | C | 
COc1cccc2oc(-c3c(Cl)[nH]c4c(-c5ccccc5)c(C(F)(F)F)nn4c3=O)nc12 [Compound C1071, 5-chloro-6-(4-methoxybenzo[d]oxazol-2-yl)-3-phenyl-2-(trifluoromethyl)pyrazolo[1,5-a]pyrimidin-7(4H)-one] | < 20 µM | < 20 µM |  | C | C | 
COc1cc(N)cc2oc(-c3c(C)[nH]c4c(-c5ccccc5)c(C(F)(F)F)nn4c3=O)nc12 [Compound C1123, 6-(6-amino-4-methoxybenzo[d]oxazol-2-yl)-5-methyl-3-phenyl-2-(trifluoromethyl)pyrazolo[1,5-a]pyrimidin-7(4H)-one] | < 20 µM | 20 to 100 µM |  | C | C | 
COc1cc(Cl)cc2oc(-c3c(C)[nH]c4c(-c5ccccc5)c(C#N)nn4c3=O)nc12 [Compound C1160, 6-(6-chloro-4-methoxybenzo[d]oxazol-2-yl)-5-methyl-7-oxo-3-phenyl-4,7-dihydropyrazolo[1,5-a]pyrimidine-2-carbonitrile] | < 20 µM | > 100 µM |  | C | C | 
Cc1[nH]c2c(-c3ccccc3)c(C(F)(F)F)nn2c(=O)c1-c1nc2c(C(N)=O)cccc2o1 [Compound C1074, 2-(5-methyl-7-oxo-3-phenyl-2-(trifluoromethyl)-4,7-dihydropyrazolo[1,5-a]pyrimidin-6-yl)benzo[d]oxazole-4-carboxamide] | 20 to 250 µM | > 100 µM |  | C | C | 
COc1cccc2oc(-c3c(CCC(=O)O)[nH]c4c(-c5ccccc5)c(C(F)(F)F)nn4c3=O)nc12 [Compound C1173, 3-(6-(4-methoxybenzo[d]oxazol-2-yl)-7-oxo-3-phenyl-2-(trifluoromethyl)-4,7-dihydropyrazolo[1,5-a]pyrimidin-5-yl)propanoic acid] | < 20 µM | 20 to 100 µM |  | C | C | 
CCOC(=O)Cc1[nH]c2c(-c3ccccc3)c(C(F)(F)F)nn2c(=O)c1-c1nc2c(OC)cccc2o1 [Compound C1140, ethyl 2-(6-(4-methoxybenzo[d]oxazol-2-yl)-7-oxo-3-phenyl-2-(trifluoromethyl)-4,7-dihydropyrazolo[1,5-a]pyrimidin-5-yl)acetate] | 20 to 250 µM |  |  | C | C | 
COc1cccc2oc(-c3c(C)[nH]c4c(-c5cc(F)cc(F)c5)c(C(F)(F)F)nn4c3=O)nc12 [Compound C1119, 3-(3,5-difluorophenyl)-6-(4-methoxybenzo[d]oxazol-2-yl)-5-methyl-2-(trifluoromethyl)pyrazolo[1,5-a]pyrimidin-7(4H)-one] | < 20 µM | < 20 µM |  | C | C | 
COCc1[nH]c2c(-c3ccccc3)c(C(F)(F)F)nn2c(=O)c1-c1c(COC)[nH]c2c(-c3ccccc3)c(C(F)(F)F)nn2c1=O [Compound C1029, 5,5′-bis(methoxymethyl)-3,3′-diphenyl-2,2′-bis(trifluoromethyl)-[6,6′-bipyrazolo[1,5-a]pyrimidine]-7,7′(4H,4′H)-dione] | 20 to 250 µM |  |  | C | C | 
Cc1[nH]c2c(-c3ccccc3)c(C(F)(F)F)nn2c(=O)c1-c1nc2c(OCC3CC3)cccc2o1 [Compound C1045, 6-(4-(cyclopropylmethoxy)benzo[d]oxazol-2-yl)-5-methyl-3-phenyl-2-(trifluoromethyl)pyrazolo[1,5-a]pyrimidin-7(4H)-one] | < 20 µM | < 20 µM | 5 to 20 µM | C |  | 
COc1cccc2oc(-c3c(CSC)[nH]c4c(-c5ccccc5)c(C(F)(F)F)nn4c3=O)nc12 [Compound C1136, 6-(4-methoxybenzo[d]oxazol-2-yl)-5-((methylthio)methyl)-3-phenyl-2-(trifluoromethyl)pyrazolo[1,5-a]pyrimidin-7(4H)-one] | < 20 µM | < 20 µM |  |  | C | 5 to 20 µM
COCc1[nH]c2c(-c3ccccc3)c(C#N)nn2c(=O)c1-c1nc2c(OC)cc(Cl)cc2o1 [Compound C1145, 6-(6-chloro-4-methoxybenzo[d]oxazol-2-yl)-5-(methoxymethyl)-7-oxo-3-phenyl-4,7-dihydropyrazolo[1,5-a]pyrimidine-2-carbonitrile] | < 20 µM | < 20 µM |  | C | C | 
COc1cccc2oc(-c3c(COCc4ccccc4)[nH]c4c(-c5ccccc5)c(C(F)(F)F)nn4c3=O)nc12 [Compound C1099, 5-((benzyloxy)methyl)-6-(4-methoxybenzo[d]oxazol-2-yl)-3-phenyl-2-(trifluoromethyl)pyrazolo[1,5-a]pyrimidin-7(4H)-one] | < 20 µM | < 20 µM |  | C | C | 
COc1cccc2oc(-c3c(C4CCC(CO)C4)[nH]c4c(-c5ccccc5)c(C(F)(F)F)nn4c3=O)nc12 (centres unmarked) [Compound C1236, 5-(3-(hydroxymethyl)cyclopentyl)-6-(4-methoxybenzo[d]oxazol-2-yl)-3-phenyl-2-(trifluoromethyl)pyrazolo[1,5-a]pyrimidin-7(4H)-one] | < 20 µM |  |  | C | C | 
COc1cccc2c1nc(-c1c(C)[nH]c3c(-c4ccccc4)c(C(F)(F)F)nn3c1=O)n2C1CCCCC1 [Compound C1176, 6-(1-cyclohexyl-4-methoxy-1H-benzo[d]imidazol-2-yl)-5-methyl-3-phenyl-2-(trifluoromethyl)pyrazolo[1,5-a]pyrimidin-7(4H)-one] | 20 to 250 µM |  |  | C | C | 
Cc1[nH]c2c(-c3ccccc3)c(C(F)(F)F)nn2c(=O)c1-c1nc2ccccc2n1C1CCCCC1 [Compound C1190, 6-(1-cyclohexyl-1H-benzo[d]imidazol-2-yl)-5-methyl-3-phenyl-2-(trifluoromethyl)pyrazolo[1,5-a]pyrimidin-7(4H)-one] | 20 to 250 µM |  |  | C | C | 
COc1cccc2oc(-c3c(CC(=O)O)[nH]c4c(-c5ccccc5)c(C(F)(F)F)nn4c3=O)nc12 [Compound C1147, 2-(6-(4-methoxybenzo[d]oxazol-2-yl)-7-oxo-3-phenyl-2-(trifluoromethyl)-4,7-dihydropyrazolo[1,5-a]pyrimidin-5-yl)acetic acid] | 20 to 250 µM |  |  | C | C | 

Reference: patent US10738056B2 (Aduro BioTech, Inc., priority 2017, dated 2020)
